Test results taken from the supplement of paper PMC10307832.

How the values were obtained:
Assay in all cases: relative viability (nuclei count vs DMSO), 5 days (fraction); higher = more cells survive
[1] = compound: CCOC1=CC=CC=C1N=NC2=C(NN(C2=O)C3=NC(=CS3)C4=CC=CC=C4)C [BAM7] + O=C(CCCCCCC(=O)Nc1ccccc1)NO [Vorinostat] (partner 1 µM)
Procedure, shortened: (§1)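 After 5 days of treatment, lung cancer cells in 1536-well plates were fixed and stained in a single step (final 0.05% Triton X-100, 1% formaldehyde, 1 ug/ml Hoechst) and their nuclei counted on 4× images. Treatment had been applied by pin tool the day after seeding as one drug alone or as a fixed anchor-drug dose with five library-drug doses (not always all listed) in √10 steps. Relative viability is the nuclei count of treated wells divided by that of vehicle wells, and values are medians of duplicate plates.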

[2] = compound: CCn1c(-c2nonc2N)nc2c(C#CC(C)(C)O)ncc(OC[C@H]3CCCNC3)c21 + C[C@]1(O)C[C@@H](c2nc(-c3ccc4ccc(-c5ccccc5)nc4c3)c3c(N)nccn32)C1 [Linsitinib] (partner 1 µM)
Procedure, shortened: as §1

[3] = compound: CCn1c(-c2nonc2N)nc2c(C#CC(C)(C)O)ncc(OC[C@H]3CCCNC3)c21 + O=C(c1cc(Cc2n[nH]c(=O)c3ccccc23)ccc1F)N1CCN(C(=O)C2CC2)CC1 [Olaparib] (partner 8 µM)
Procedure, shortened: as §1

[4] = compound: CCn1c(-c2nonc2N)nc2c(C#CC(C)(C)O)ncc(OC[C@H]3CCCNC3)c21 + CCNC(=O)c1noc(-c2cc(C(C)C)c(O)cc2O)c1-c1ccc(CN2CCOCC2)cc1 [Luminespib] (partner 0.01 µM)
Procedure, shortened: as §1

Cell Line | relative viability ([1]; first compound 0.5 µM) | relative viability ([1]; first compound 5 µM) | relative viability ([1]; first compound 15.81 µM) | relative viability ([1]; first compound 50 µM) | relative viability ([2]; first compound 0.01 µM) | relative viability ([2]; first compound 0.03162 µM) | relative viability ([2]; first compound 0.1 µM) | relative viability ([2]; first compound 0.3162 µM) | relative viability ([2]; first compound 1 µM) | relative viability ([3]; first compound 0.01 µM) | relative viability ([3]; first compound 0.03162 µM) | relative viability ([3]; first compound 0.1 µM) | relative viability ([3]; first compound 0.3162 µM) | relative viability ([3]; first compound 1 µM) | relative viability ([4]; first compound 0.01 µM) | relative viability ([4]; first compound 0.03162 µM) | relative viability ([4]; first compound 0.1 µM) | relative viability ([4]; first compound 0.3162 µM) | relative viability ([4]; first compound 1 µM)
NCI-H1944 | 0.521 | 0.46 | 0.396 | 0.43 | 1.15 | 1.17 | 1.21 | 1.21 | 1.21 | 0.393 | 0.418 | 0.4 | 0.41 | 0.407 | 0.7 | 0.786 | 0.76 | 0.751 | 0.733
NCI-H1793 | 0.751 | 0.715 | 0.726 | 1.08 | 0.761 | 0.835 | 0.756 | 0.851 | 0.806 | 0.765 | 1.26 | – | 0.742 | 0.933 | 0.24 | 0.237 | 0.212 | 0.189 | 0.233
NCI-H520 | 0.801 | 0.866 | 0.702 | 0.718 | 1.03 | 1.07 | 0.849 | 0.795 | 0.674 | 0.337 | 0.341 | 0.236 | 0.194 | 0.169 | 0.188 | 0.222 | 0.188 | 0.238 | 0.182
NCI-H460 | 0.657 | 0.634 | 0.611 | 0.647 | 0.747 | 0.752 | 0.687 | 0.774 | 0.64 | 0.363 | 0.411 | 0.474 | 0.403 | 0.495 | 0.0307 | 0.0313 | 0.0273 | 0.031 | 0.0375
EKVX | 0.611 | 0.664 | 0.457 | 0.513 | 0.997 | 0.952 | 1.03 | 0.954 | 0.976 | 0.89 | 0.986 | 0.926 | 0.768 | 0.757 | 0.788 | 0.887 | 0.867 | 0.878 | 0.911
NCI-H358 | – | 0.644 | 0.528 | 0.667 | 0.812 | 0.877 | 0.667 | 0.631 | 0.562 | 0.556 | 0.601 | 0.569 | 0.525 | 0.518 | 0.375 | 0.403 | 0.279 | 0.257 | 0.419
EPLC-272H | 0.623 | 0.427 | 0.477 | 0.358 | 1.24 | 1.21 | 1.03 | 1.17 | 1.39 | 0.833 | 0.853 | 0.641 | 0.56 | 0.507 | 0.228 | 0.141 | 0.311 | 0.262 | 0.309
NCI-H1395 | 0.662 | 0.678 | 0.645 | 0.939 | 0.997 | 0.972 | 1.12 | 1 | 0.904 | 0.464 | 0.412 | 0.472 | 0.433 | 0.372 | 0.78 | 0.705 | 0.546 | 0.596 | 0.695
NCI-H2126 | 0.719 | 0.597 | 0.635 | 0.664 | 0.751 | 0.716 | 0.695 | 0.671 | 0.788 | 0.917 | 0.927 | 0.977 | 0.893 | 0.95 | 0.85 | 0.914 | 0.892 | 0.859 | 0.961
LXF-289 | 0.82 | 0.92 | 0.84 | 0.7 | 0.971 | 0.945 | 0.96 | 0.882 | 0.951 | 1.06 | 1.1 | 1.03 | 0.973 | 1.05 | 0.604 | 0.822 | 0.627 | 0.617 | 0.701
NCI-H2009 | 0.67 | 0.755 | 0.706 | 0.693 | 1.15 | 1.19 | 1.27 | 1.1 | 1.19 | 0.655 | 0.673 | 0.682 | 0.685 | 0.75 | 1.07 | 0.981 | 1.06 | 0.986 | 0.983
NCI-H2405 | 1.02 | 1.06 | 1.18 | 0.917 | 0.924 | 1.06 | – | 0.794 | 1.02 | 0.836 | 0.844 | 0.821 | 0.8 | 0.915 | 0.542 | 0.793 | 0.663 | 0.647 | 0.698
NCI-H1755 | 0.751 | 0.867 | 0.79 | 0.844 | 1.04 | 1.02 | 1 | 0.954 | 1.01 | 0.969 | 0.891 | 0.873 | 0.847 | 0.917 | 0.455 | 0.519 | 0.556 | 0.513 | 0.423
LOU-NH91 | 0.899 | 0.936 | 0.917 | 0.903 | 0.953 | 0.987 | 0.963 | 0.88 | 0.886 | 0.936 | 0.914 | 0.936 | 0.797 | 0.856 | 0.34 | 0.365 | 0.374 | 0.319 | 0.316
NCI-H3122 | 0.985 | 0.887 | 1.02 | 1.14 | 1.05 | 0.944 | 0.972 | 1.01 | 1.03 | 0.591 | 0.62 | 0.632 | 0.559 | 0.609 | 0.0785 | 0.0949 | 0.101 | 0.072 | 0.0984
HCC-827 | 0.806 | 1 | 1.01 | 0.789 | 0.879 | 1.03 | 0.97 | 0.942 | 0.962 | 0.602 | 0.671 | 0.661 | 0.622 | 0.683 | 0.533 | 0.895 | 0.729 | 0.476 | 0.633
SK-LU-1 | 0.83 | 0.901 | 0.784 | 0.847 | 1.06 | 1.23 | 1.22 | 1.19 | 1.09 | 0.49 | 0.723 | 0.482 | 0.43 | 0.461 | 0.22 | 0.2 | 0.211 | 0.22 | 0.215
